The nature of series [1]: Serum glucose levels in NIDDM animals. To be noted: NIDDM rats, n=5, vehicle 0. In kind it is in vivo, mouse.
In series [2] the test system is focal cerebral ischemia-reperfusion rats. The experiment in a line: Striatal blood flow in focal cerebral ischemia-reperfusion rats (laser Doppler flowmetry). Type of series: in vivo, rat. Conditions: 40-min common carotid occlusion plus endothelin-1, 24-hrs reperfusion, FIG. 4.
Another series relates to eNOS. Put plainly: Western blot analysis for eNOS protein in ischemia-reperfusion rat heart. In kind it is in vivo. Conditions: ischemia 25 min, reperfusion 2 h, 0.5 mg/kg at 5 min prior to reperfusion, P<0.05 vs vehicle. Here is the method:
To elucidate the effects of the test compounds on the infarct size caused by regional myocardial ischemia and reperfusion, all animals were randomized into 8 study groups. The first group (Sham) comprised of animals not subjected to regional myocardial ischemia (25 min) followed by reperfusion (2 h) and treated with vehicle (1 ml/kg) 5 minutes prior to the onset of reperfusion. The second group of animals were subjected to regional myocardial ischemia (25 min) followed by reperfusion (2 h) and were treated with vehicle (saline, 1 ml/kg). […]
Hearts were pulverized at −80° C. using liquid nitrogen and a stainless steel pestle and mortar. […] Total protein concentrations were determined using the Bradford method (Bio-Rad, UK). […] Signals were detected using the enhanced chemiluminescence (ECL™) detection system (Cell Signaling Technology, U.S.A.) and autoradiographic film. For quantification of protein expression all blots were reprobed for muscle α-actin expression using 1/2000 dilution of a mouse anti-human actin (muscle antibody (Serotec), followed by incubation with a goat anti-mouse HRP linked secondary antibody ( 1/2000 dilution) (DakoCytomation, Denmark). Densitometry analysis was performed on scanned images (Hewlett Packard Scanjet) and analyzed using Scion Image (Scion Corp, National Institutes of Health, Bethesda, Md.).
In general terms: Immunoblotting shows a protein as a band on a membrane.

Series [3] deals with Langendorff perfused rat hearts. The experiment in a line: Coronary flow in Langendorff perfused rat hearts. Conditions: FIG. 3. Here is the method:
Adult male Wistar rats weighing 275-325 g, were intraperitoneally anesthetized with sodium pentobarbital (50 mg·kg^−1) and given heparin (300 Ukg·kg^−1) by the same route. Hearts were rapidly excised and immersed in 37° C. perfusion medium. The aorta was cannulated and retrograde-perfused at 80 mmHg with Tyrode's solution containing 120 mM NaCl, 25 mM NaHCO3, 3 mM KCl, 1.2 mM NaH2PO4, 2.5 mM CaCl2, 1.2 mM MgCl2, and […] 5.5 mM glucose. The perfusate was equilibrated with 95% O2, 5% CO2 at 37° C. Perfusion pressure was monitored using a MLT844/D pressure transducer (Capto, Horten, Norway) connected to a PowerLab (ADInstruments, Castle Hill, Australia). The coronary effluent was collected for the measurement of coronary flow.

Series [4] deals with regional myocardial ischemia and reperfusion (LAD occlusion). Put plainly: Infarct size in a rat model of regional myocardial ischemia and reperfusion. In kind it is in vivo. Conditions: rat, LAD occlusion 25 min, reperfusion 2 h; 0.5 mg/kg i.v.; vehicle 58±2%; P<0.05 vs vehicle. Here is the method:
Seventy two male Wistar rats (215-300 g, Charles River, Margate, U.K.) were anaesthetized with thiopentone sodium (Intraval®, 120 mg/kg i.p.; Rhone-Merrieux, Essex, U.K.). The rats were tracheotomised and ventilated with a Harvard ventilator (70 strokes/min, tidal volume: 8-10 ml/kg, inspiratory oxygen concentration: 30%). Body temperature was maintained at 38±1° C. The right carotid artery was cannulated and connected to a pressure transducer (MLT 844, AD Instruments Ltd, Hastings, UK) to monitor mean arterial blood pressure and heart rate, which were continuously recorded on a data acquisition system (Powerlab® Version 4.0.4, AD Instruments, Hastings, UK) installed on a Dell Dimension 4100 personal computer, throughout the experiment. The right jugular vein was cannulated for the administration of test compound and Evans Blue dye (at the end of the experiment). A parasternal thoracotomy was performed, the heart was suspended in a temporary pericardial cradle and a snare occluder was placed around the left anterior descending coronary artery (LAD). After completion of the surgical procedure the animals were allowed to stabilize for 30 min before LAD ligation. The coronary artery was occluded at time 0 by tightening of the occluder. After 25 min of acute myocardial ischemia, the occluder was released to allow reperfusion for 2 h.
The test compounds were administered as a slow intravenous injection (i.v.) 5 min prior to the onset of reperfusion of the ischemic heart. Following the 2 h reperfusion period, the coronary artery was re-occluded and Evans Blue dye (1 ml of 2% w/v) was injected into the left ventricle, via the right jugular vein cannula, to distinguish between perfused and non-perfused (AAR) sections of the heart. The Evans Blue solution stains the perfused myocardium, while the occluded vascular bed remains uncolored. The animals were sacrificed with an overdose of anesthetic and the heart excised. The heart was sectioned into slices of 3-4 mm thick, the right ventricular wall was removed, and the AAR (pink) was separated from the non-ischemic (blue) area. […]

Another series concerns MCAO rats. Put plainly: Middle cerebral artery occlusion (MCAO) cerebral ischemia lesions in rats. To be noted: for Infarcted Volume (X ± SEM mm^3): vehicle D.W. 214.75 ± 26.37. Type of series: in vivo, rat. An excerpt: The same effects of preventing the ischemia-reperfusion damages with aporphine and oxoaporphine compounds also found in the other organs, such as brain. After Compound 16 or Compound 21, which is a compound of Formula B (where R1, R2, R5, R6 are OMe, R3, R4, R7 are H) was administrated to male Sprague Dawley rats, the effects of test compounds on the artery occlusive cerebral ischemia in the rats were monitored. First, permanent brain ischemia was induced by middle cerebral artery occlusion (MCAO) in the rats. At 0, 6, 24, 48, and 54 hours after the formation of middle cerebral artery occlusion (MCAO), Group I (i.e., the control group) animals were given the solvent (100% DMSO) (1 ml/kg, i.p.); Group II (i.e., the control group) animals were given the distilled water (D.W.) (1 ml/kg, i.p.);Group III animals (NCM-121) were given Compound 16 (1.5 mg/kg, i.p.); Group IV animals (NCM-124) were given Compound 21 (1.7 mg/kg, i.p); Group V animals were given MK-801 (0.3 mg/kg, i.p.), an antagonist of the N-methyl-D-aspartic acid (NMDA) receptor. There were ten rats in each group. Four days after the formation of MCAO, all the rats were sacrificed. Brain sections were made and stained with 2% cresol purple. The areas and volumes of cerebral ischemia lesions in each section were recorded.

Marks after values point to notes of the source that are not given here.

The text below walks through data of patent US7294715B2, “Aporphine and oxoaporphine compounds and pharmaceutical use thereof” (Lotus Pharmaceutical Co., Ltd., priority 2003, dated 2007).

The term melting point denotes the temperature, or range, at which the solid turns liquid. For the compound `COc1cc2c(cc1OC(C)C)C(=O)C1c3c(cc(OC(C)C)c(OC)c3-2)CCN1C` (stereo not drawn) [Compound 3, 2,9-Diisopropyloxy-1,10-dimethoxy-7-oxoaporphine], the melting point is 82 to 84 °C.

As to `CN(C)C(=N)N=C(N)N` [Metformin, reference compound], the “serum glucose Percentage of change (%)” value in series [1] (100 mg/kg × 3 days, po) was found to be 39 ± 1.6%.

In the case of `COc1cc2c(cc1OC)-c1c(O)c(OC)cc3c1C(C2)N(C)CC3` (stereo not drawn) [Compound 20], the “blood flow in brain (striatal blood flow)” value in series [2] is given as “increase in blood flow in brain”. Besides, the “reduction in eNOS protein expression caused by ischemia and reperfusion” value in the series on eNOS is listed as “significantly reduced”. Besides, the coronary blood flow entry in series [3] is “increasing coronary blood flow”. Further, the “serum glucose Percentage of change (%)” value in series [1] (3 mg/kg × 3 days, iv, 90 minutes after last dose vs pre-treatment) stood at 12 ± 3.5%. In addition, the infarct size in series [4] is recorded as 34±4 % of the area at risk.

The compound `COc1ccc2c(c1)-c1c(OC)ccc3c1C(C2=O)N(C)CC3` (stereo not drawn) [Compound 7, 1,10-dimethoxy-7-oxoaporphine] came in with a melting point of 162 to 164 °C.

Take `COc1cc2c(cc1OC)-c1c(OC)c(OC)cc3ccnc(c13)C2=O` [Compound 21]: the coronary blood flow result in series [3] is on record as “increasing coronary blood flow”. Also, the “Infarcted Volume (X ± SEM mm^3)” value in the series with MCAO rats (IP 1.7 mg/kg × 6, N=10, four days after MCAO) is reported as 133.75 ± 19.57* mm^3. Besides, the “% Decrease in total volume of ischemic lesions” value in the series on MCAO rats (IP 1.7 mg/kg × 6, vs Group II vehicle (D.W.)) is given as 37.72%. Moreover, in the series with MCAO rats (comparison in words), the “effects in reducing the areas and volumes of cerebral ischemia lesions as compared with MK-801” value is given as “more significant effects”.

Turning to `C[C@]12N[C@H](Cc3ccccc31)c1ccccc12` [MK-801, reference compound], the “Infarcted Volume (X ± SEM mm^3)” value in the series on MCAO rats (IP 0.3 mg/kg × 6, N=10, four days after MCAO) is reported as 47.34 ± 13.79* mm^3. Besides, the “% Decrease in total volume of ischemic lesions” value in the series on MCAO rats (IP 0.3 mg/kg × 6, vs Group II vehicle (D.W.)) is recorded as 77.96%.

For `COc1cc2c(cc1O)C(=O)C1c3c(cc(OC(C)C)c(OC)c3-2)CCN1C` (stereo not drawn) [Compound 4, 9-hydroxy-2-isopropyloxy-1,10-dimethoxy-7-oxoaporphine], the melting point fell in the range of 240 to 242 °C.
